Results: ChEMBL document CHEMBL3885861, “Open TG-GATES”

Species: Rattus norvegicus
Test: Open TG-GATES - Regimen: Daily Repeat
Type: toxicity, organism-based, Sprague-Dawley
Parameters: regimen Daily Repeat, gender Male, age 6 weeks
Conditions: in vivo, po, route gavage; for APTT / Bas / Eos / Fbg / Hb / Ht / Lym / MCH / MCHC / Mono / Neu / Plat / RBC / Ret: tissue Blood; for KIDNEY_L / KIDNEY_R / KIDNEY_TOTAL: tissue Kidney; for LIVER: tissue Liver; for ALP / ALT / AST / BUN / CRE / Ca / Cl / DBIL / GLC / IP / K / LDH / Na / PL / RALB / TBIL / TC / TG / TP / gamma-GTP: tissue Plasma
[1] = 0 mg/kg, 72 h, dose level Control, time 3 day
[2] = 0 mg/kg, […], dose level Control, time 7 day
[3] = 0 mg/kg, […], dose level Control, time 14 day
[4] = 0 mg/kg, […], dose level Control, time 28 day
[5] = 3 mg/kg, 72 h, dose level Low, time 3 day
[6] = 3 mg/kg, […], dose level Low, time 7 day
[7] = 3 mg/kg, […], dose level Low, time 14 day
[8] = 3 mg/kg, […], dose level Low, time 28 day

O=C(CCCN1CCC(O)(c2ccc(Cl)cc2)CC1)c1ccc(F)cc1 [HALOPERIDOL]
TERMINAL_BW [1]: 226.4 g | APTT [1]: 16.5 s | Bas [1]: 0% | Eos [1]: 0.2% | Fbg [1]: 223.2 mg/dL | Hb [1]: 13.8 g/dL | Ht [1]: 41.1% | Lym [1]: 84.4% | MCH [1]: 21.8 pg | MCHC [1]: 33.6% | Mono [1]: 4% | Neu [1]: 11.4% | Plat [1]: 119.4 x10_4/uL | RBC [1]: 632.8 x10_4/ul | Ret [1]: 7.7% | KIDNEY_L [1]: 1 g | KIDNEY_R [1]: 1 g | KIDNEY_TOTAL [1]: 2 g | LIVER [1]: 11.1 g | ALP [1]: 915.2 IU/L | ALT [1]: 38 IU/L | AST [1]: 59.6 IU/L | BUN [1]: 19.2 mg/dL | CRE [1]: 0.6 mg/dL | Ca [1]: 11.2 mg/dL | Cl [1]: 105.8 meq/L | DBIL [1]: 0 mg/dL | GLC [1]: 191.2 mg/dL | IP [1]: 8.4 mg/dL | K [1]: 4.9 meq/L | LDH [1]: 91.8 IU/L | Na [1]: 139.2 meq/L | PL [1]: 166.2 mg/dL | RALB [1]: 4 g/dL | TBIL [1]: 0.2 mg/dL | TC [1]: 88 mg/dL | TG [1]: 96.6 mg/dL | TP [1]: 6 g/dL | gamma-GTP [1]: 1.6 IU/L | TERMINAL_BW [2]: 261.8 g | TERMINAL_BW [3]: 307.2 g | TERMINAL_BW [4]: 396.3 g | APTT [2]: 16.9 s | Bas [2]: 0% | Eos [2]: 0.8% | Fbg [2]: 216.4 mg/dL | Hb [2]: 13.9 g/dL | Ht [2]: 41.8% | Lym [2]: 80.4% | MCH [2]: 21.2 pg | MCHC [2]: 33.3% | Mono [2]: 4.8% | Neu [2]: 14% | Plat [2]: 104.8 x10_4/uL | RBC [2]: 658 x10_4/ul | Ret [2]: 5.8% | APTT [3]: 16.2 s | Bas [3]: 0% | Eos [3]: 0.2% | Fbg [3]: 224.2 mg/dL | Hb [3]: 14.6 g/dL | Ht [3]: 43.8% | Lym [3]: 78.4% | MCH [3]: 20.4 pg | MCHC [3]: 33.3% | Mono [3]: 5.2% | Neu [3]: 16.2% | Plat [3]: 107.4 x10_4/uL | RBC [3]: 716 x10_4/ul | Ret [3]: 3.7% | APTT [4]: 16.6 s | Bas [4]: 0% | Eos [4]: 0.8% | Fbg [4]: 235.8 mg/dL | Hb [4]: 15.1 g/dL | Ht [4]: 45.3% | Lym [4]: 80.8% | MCH [4]: 19.2 pg | MCHC [4]: 33.4% | Mono [4]: 5.8% | Neu [4]: 12.6% | Plat [4]: 105.5 x10_4/uL | RBC [4]: 787.6 x10_4/ul | Ret [4]: 3% | KIDNEY_L [2]: 1.1 g | KIDNEY_R [2]: 1.1 g | KIDNEY_TOTAL [2]: 2.1 g | KIDNEY_L [3]: 1.2 g | KIDNEY_R [3]: 1.2 g | KIDNEY_TOTAL [3]: 2.4 g | KIDNEY_L [4]: 1.4 g | KIDNEY_R [4]: 1.4 g | KIDNEY_TOTAL [4]: 2.8 g | LIVER [2]: 12.9 g | LIVER [3]: 14 g | LIVER [4]: 16.7 g | ALP [2]: 874.8 IU/L | ALT [2]: 33.4 IU/L | AST [2]: 59.4 IU/L | BUN [2]: 20.2 mg/dL | CRE [2]: 0.5 mg/dL | Ca [2]: 11.2 mg/dL | Cl [2]: 104.8 meq/L | DBIL [2]: 0.006 mg/dL | GLC [2]: 196 mg/dL | IP [2]: 7.4 mg/dL | K [2]: 4.6 meq/L | LDH [2]: 93 IU/L | Na [2]: 138.8 meq/L | PL [2]: 169.8 mg/dL | RALB [2]: 3.9 g/dL | TBIL [2]: 0.3 mg/dL | TC [2]: 83 mg/dL | TG [2]: 134.4 mg/dL | TP [2]: 5.9 g/dL | gamma-GTP [2]: 1.8 IU/L | ALP [3]: 784.8 IU/L | ALT [3]: 32.6 IU/L | AST [3]: 62.4 IU/L | BUN [3]: 21.2 mg/dL | CRE [3]: 0.5 mg/dL | Ca [3]: 10.7 mg/dL | Cl [3]: 106.8 meq/L | DBIL [3]: 0.01 mg/dL | GLC [3]: 195.4 mg/dL | IP [3]: 7.4 mg/dL | K [3]: 4.8 meq/L | LDH [3]: 93.2 IU/L | Na [3]: 138.2 meq/L | PL [3]: 161.2 mg/dL | RALB [3]: 3.9 g/dL | TBIL [3]: 0.3 mg/dL | TC [3]: 76.2 mg/dL | TG [3]: 149 mg/dL | TP [3]: 6.2 g/dL | gamma-GTP [3]: 1.4 IU/L | ALP [4]: 558 IU/L | ALT [4]: 30.4 IU/L | AST [4]: 58.8 IU/L | BUN [4]: 22.2 mg/dL | CRE [4]: 0.6 mg/dL | Ca [4]: 11.1 mg/dL | Cl [4]: 105 meq/L | DBIL [4]: 0.052 mg/dL | GLC [4]: 177.4 mg/dL | IP [4]: 7.8 mg/dL | K [4]: 4.6 meq/L | LDH [4]: 79.4 IU/L | Na [4]: 140 meq/L | PL [4]: 160.8 mg/dL | RALB [4]: 4.1 g/dL | TBIL [4]: 0.2 mg/dL | TC [4]: 75.2 mg/dL | TG [4]: 176.2 mg/dL | TP [4]: 6.6 g/dL | gamma-GTP [4]: 1.6 IU/L | TERMINAL_BW [5]: 219.6 g | APTT [5]: 16 s | Bas [5]: 0% | Eos [5]: 1.4% | Fbg [5]: 210 mg/dL | Hb [5]: 14.1 g/dL | Ht [5]: 42.1% | Lym [5]: 75.8% | MCH [5]: 21.4 pg | MCHC [5]: 33.5% | Mono [5]: 5% | Neu [5]: 17.8% | Plat [5]: 113.5 x10_4/uL | RBC [5]: 658.8 x10_4/ul | Ret [5]: 6.6% | KIDNEY_L [5]: 0.9 g | KIDNEY_R [5]: 0.9 g | KIDNEY_TOTAL [5]: 1.9 g | LIVER [5]: 10.7 g | ALP [5]: 995 IU/L | ALT [5]: 39.6 IU/L | AST [5]: 62 IU/L | BUN [5]: 21 mg/dL | CRE [5]: 0.5 mg/dL | Ca [5]: 11.3 mg/dL | Cl [5]: 106.2 meq/L | DBIL [5]: 0 mg/dL | GLC [5]: 183.6 mg/dL | IP [5]: 7.9 mg/dL | K [5]: 4.8 meq/L | LDH [5]: 76.4 IU/L | Na [5]: 138.6 meq/L | PL [5]: 195.4 mg/dL | RALB [5]: 4 g/dL | TBIL [5]: 0.2 mg/dL | TC [5]: 93.6 mg/dL | TG [5]: 112 mg/dL | TP [5]: 6 g/dL | gamma-GTP [5]: 1.4 IU/L | TERMINAL_BW [6]: 256.9 g | TERMINAL_BW [7]: 298.2 g | TERMINAL_BW [8]: 375.7 g | APTT [6]: 16.5 s | Bas [6]: 0% | Eos [6]: 0.2% | Fbg [6]: 217 mg/dL | Hb [6]: 14.3 g/dL | Ht [6]: 42.9% | Lym [6]: 79.2% | MCH [6]: 21.1 pg | MCHC [6]: 33.4% | Mono [6]: 4.4% | Neu [6]: 16.2% | Plat [6]: 100.7 x10_4/uL | RBC [6]: 678.4 x10_4/ul | Ret [6]: 5.1% | APTT [7]: 17.2 s | Bas [7]: 0% | Eos [7]: 0.8% | Fbg [7]: 226.4 mg/dL | Hb [7]: 15.1 g/dL | Ht [7]: 45.1% | Lym [7]: 76.6% | MCH [7]: 20.9 pg | MCHC [7]: 33.6% | Mono [7]: 5.2% | Neu [7]: 17.4% | Plat [7]: 108.9 x10_4/uL | RBC [7]: 723.2 x10_4/ul | Ret [7]: 4% | APTT [8]: 17.3 s | Bas [8]: 0% | Eos [8]: 0% | Fbg [8]: 223.4 mg/dL | Hb [8]: 15.2 g/dL | Ht [8]: 45.4% | Lym [8]: 84.4% | MCH [8]: 19.4 pg | MCHC [8]: 33.5% | Mono [8]: 2.4% | Neu [8]: 13.2% | Plat [8]: 99.3 x10_4/uL | RBC [8]: 782.4 x10_4/ul | Ret [8]: 2.3% | KIDNEY_L [6]: 1 g | KIDNEY_R [6]: 1.1 g | KIDNEY_TOTAL [6]: 2.1 g | KIDNEY_L [7]: 1.2 g | KIDNEY_R [7]: 1.2 g | KIDNEY_TOTAL [7]: 2.4 g | KIDNEY_L [8]: 1.3 g | KIDNEY_R [8]: 1.2 g | KIDNEY_TOTAL [8]: 2.5 g | LIVER [6]: 12.2 g | LIVER [7]: 13.3 g | LIVER [8]: 14.9 g | ALP [6]: 845.6 IU/L | ALT [6]: 33.2 IU/L | AST [6]: 61.4 IU/L | BUN [6]: 19.2 mg/dL | CRE [6]: 0.6 mg/dL | Ca [6]: 11.6 mg/dL | Cl [6]: 106.8 meq/L | DBIL [6]: 0 mg/dL | GLC [6]: 187.8 mg/dL | IP [6]: 7.7 mg/dL | K [6]: 4.6 meq/L | LDH [6]: 93.4 IU/L | Na [6]: 138.4 meq/L | PL [6]: 162 mg/dL | RALB [6]: 4 g/dL | TBIL [6]: 0.2 mg/dL | TC [6]: 74.6 mg/dL | TG [6]: 132 mg/dL | TP [6]: 6.1 g/dL | gamma-GTP [6]: 1.4 IU/L | ALP [7]: 747.6 IU/L | ALT [7]: 28.2 IU/L | AST [7]: 63.2 IU/L | BUN [7]: 20 mg/dL | CRE [7]: 0.5 mg/dL | Ca [7]: 11 mg/dL | Cl [7]: 106.4 meq/L | DBIL [7]: 0.01 mg/dL | GLC [7]: 178.4 mg/dL | IP [7]: 6.8 mg/dL | K [7]: 4.7 meq/L | LDH [7]: 89.6 IU/L | Na [7]: 137.8 meq/L | PL [7]: 144.8 mg/dL | RALB [7]: 4 g/dL | TBIL [7]: 0.3 mg/dL | TC [7]: 62.2 mg/dL | TG [7]: 144.2 mg/dL | TP [7]: 6.3 g/dL | gamma-GTP [7]: 1.8 IU/L | ALP [8]: 579.4 IU/L | ALT [8]: 62.6 IU/L | AST [8]: 58.8 IU/L | BUN [8]: 20.8 mg/dL | CRE [8]: 0.6 mg/dL | Ca [8]: 10.9 mg/dL | Cl [8]: 107.6 meq/L | DBIL [8]: 0.054 mg/dL | GLC [8]: 178.6 mg/dL | IP [8]: 6.7 mg/dL | K [8]: 4.5 meq/L | LDH [8]: 76.2 IU/L | Na [8]: 139 meq/L | PL [8]: 145 mg/dL | RALB [8]: 4.1 g/dL | TBIL [8]: 0.2 mg/dL | TC [8]: 62.8 mg/dL | TG [8]: 187.4 mg/dL | TP [8]: 6.6 g/dL | gamma-GTP [8]: 1.4 IU/L
